# Earlier results as cited in patent publication US10925995B2, “Absorber and absorbent article using the same” (LIVEDO CORPORATION, priority 2012, dated 2021).
# Settings: in water at 25 degrees centigrade; no stage stated
row,SMILES,acid dissociation constant pKa
1,O=C1O[C@H]([C@@H](O)CO)C(O)=C1O [L-ascorbic acid],4.03
2,Nc1cccc(S(=O)(=O)O)c1 [m-aniline sulfonic acid],3.74
3,N#Cc1ccc(C(=O)O)cc1 [p-cyanobenzoic acid],3.55
4,O=C(O)Cc1ccccc1 [phenylacetic acid],4.10
5,COC(=O)CC(O)(CC(=O)O)C(=O)O (stereo not shown) [citric acid monomethyl ester],4.35
6,C=CCC(=O)O [vinyl acetic acid],4.12
7,O=C(O)CCCCC(=O)O [adipic acid],4.26
8,O=C(O)c1ccc(I)cc1 [p-iodobenzoic acid],4.00
9,NCCCC(=O)O [4-aminobutyric acid],4.03
10,CCCCC(=O)O [valeric acid],4.64
11,C/C=C/C(=O)O [crotonic acid],4.69
12,O=C(O)c1cccc(I)c1 [m-iodobenzoic acid],3.85
13,CCCCCCC(=O)O [heptanoic acid],4.66
14,O=C(O)CCCCCC(=O)O [pimelic acid],4.31
15,O=C(O)c1cccc([N+](=O)[O-])c1 [m-nitrobenzoic acid],3.45
16,CC(=O)CCC(=O)O [levulinic acid],4.44
17,O=C(O)c1ccc([N+](=O)[O-])cc1 [p-nitrobenzoic acid],3.44
18,O=C(O)C(O)c1ccccc1 (stereo not shown) [mandelic acid],3.19
19,O=C(O)c1cccc(Br)c1 [m-bromobenzoic acid],3.81
20,O=C(O)c1ccc(Br)cc1 [p-bromobenzoic acid],4.00
21,O=C(O)CS [mercaptoacetic acid],3.43
22,CCCCCC(=O)O [hexanoic acid],4.63
23,Nc1ccc(S(=O)(=O)O)cc1 [p-aniline sulfonic acid],3.23
24,O=C(O)C1CCCCC1 [cyclohexane carboxylic acid],4.70
25,O=C(O)CCCl [3-chloropropionic acid],3.92
26,Nc1cccc(C(=O)O)c1 [m-aminobenzoic acid],3.12
27,COC(=O)c1ccncc1 [methyl isonicotinate],3.26
28,O=C(O)/C=C\c1ccccc1 [cinnamic acid (cis)],3.88
29,COc1ccccc1C(=O)O [o-anisic acid],4.09
30,O=C(O)CCCC(=O)O [glutaric acid],4.13

# Same assay, conditions: in water at 25 degrees centigrade; second stage
row,SMILES,"acid dissociation constant pKa, second stage"
1,O=C(O)c1ccc2ccccc2n1 [quinaldic acid],4.75
2,"O=C(O)[C@H](O)[C@@H](O)C(=O)O [(R,R)-tartaric acid]",4.44
3,O=C(O)c1ccccc1C(=O)O [o-benzenedicarboxylic acid],4.93
4,O=C(O)/C=C/C(=O)O [fumaric acid],4.10
5,O=C(O)c1ccncc1 [isonicotinic acid],4.87
6,O=C(O)C(O)C(O)C(=O)O (stereo not drawn) [d-tartaric acid],3.95
7,O=C(O)CC(O)(CC(=O)O)C(=O)O [citric acid],4.35
8,Nc1ccccc1C(=O)O [o-aminobenzoic acid],4.95
9,Nc1ccc(C(=O)O)cc1 [p-aminobenzoic acid],4.85

# Same assay, conditions: in water at 25 degrees centigrade; third stage
row,SMILES,"acid dissociation constant pKa, third stage"
1,"O=C(O)c1cccc(C(=O)O)n1 [2,6-pyridinedicarboxylic acid]",4.68
